Test results as given in PubChem BioAssay (NCI).
“And” between values parts separate entries of the source, which are not always exact repeats. Identical values can stand only once.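 Cells were grown in 96-well plates and exposed to each compound for 48 hours at five concentrations; endpoints were interpolated linearly between bracketing concentrations, or set to the highest concentration if not reached. At the GI50, growth is halved. Definition used: TGI = concentration required for complete inhibition of growth.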

Key:
Test in all cases: NCI tumour cell line growth inhibition, 48 h
[1] = system: UACC-257 melanoma
[2] = system: DLD-1 colon
[3] = system: NCI-H522 lung
[4] = system: MOLT-4 leukemia
[5] = system: M19-MEL melanoma
[6] = system: HOP-62 NSCLC
[7] = system: SN12C renal
[8] = system: UO-31 renal
[9] = system: U251 CNS
[10] = system: T-47D breast

CCN(CC)CCNc1ccc2nc(C)n3c4ccc(O)cc4c(=O)c1c23
TGI [1]: 21.2 µM | TGI [2]: 10.5 µM | TGI [3]: 2.24 µM | TGI [4]: 0.293 µM | TGI [5]: 16.8 µM | TGI [6]: 18.8 µM | TGI [7]: 12.4 µM | TGI [8]: 12.1 µM | TGI [9]: 15.8 µM

COC[C@H](C)N=CN1CCc2ccccc2C1(Cc1ccccc1)Cc1ccccc1
TGI [1]: 28.3 µM | TGI [2]: 29.8 µM | TGI [3]: 26.7 µM | TGI [4]: 37.9 µM | TGI [6]: 95.4 µM | TGI [7]: 23.8 µM | TGI [8]: 33 µM | TGI [9]: 26.9 µM

C[CH2][Sn]([CH2]C)([O]C(=O)c1ccc(OC)c(OC)c1OC)[O]C(=O)c1ccc(OC)c(OC)c1OC
GI50 [1]: > 78.9 µM | TGI [1]: > 100 µM | GI50 [3]: 2.42 µM | TGI [3]: 8.54 µM | GI50 [4]: 34.1 µM | TGI [4]: > 100 µM | GI50 [5]: 53.2 µM | TGI [5]: > 100 µM | GI50 [10]: 12.7 µM | TGI [10]: 26.1 µM | GI50 [6]: > 100 µM | TGI [6]: > 100 µM | GI50 [7]: 99.8 µM | TGI [7]: > 100 µM | GI50 [8]: > 65.7 µM | TGI [8]: > 96.4 µM | GI50 [9]: > 75.8 µM | TGI [9]: > 100 µM

C=CCN(N=O)C(=O)NCCCCC(NC(C)=O)C(=O)NCc1ccccc1 (configuration not stated)
TGI [1]: > 100 µM | TGI [3]: > 100 µM | TGI [4]: > 100 µM | TGI [5]: > 100 µM | TGI [6]: > 100 µM | TGI [7]: > 100 µM | TGI [8]: > 100 µM | TGI [9]: > 100 µM

CCCN1CCC(c2ccc(Nc3nc(Nc4cc(F)ccc4C(N)=O)c4cc[nH]c4n3)c(OC)c2)CC1
GI50 [1]: 0.572 µM | TGI [1]: 5.2 µM | GI50 [3]: 3.42 µM | TGI [3]: 6.69 µM | GI50 [4]: 4.4 µM | TGI [4]: 12.3 µM | GI50 [10]: 4.14 µM | TGI [10]: 9.17 µM | GI50 [6]: 2.71 µM | TGI [6]: 5.84 µM | GI50 [7]: 3.62 µM | TGI [7]: 8.55 µM | GI50 [8]: 2.14 µM | TGI [8]: 6.54 µM | GI50 [9]: 0.509 µM | TGI [9]: 1.97 µM

Cn1c2ccccc2c2c(=O)n(CCCC(=O)OC(=NC3CCCCC3)NC3CCCCC3)c3c(-c4ccccc4)nnn3c21
GI50 [1]: > 100 µM | TGI [1]: > 100 µM | GI50 [3]: 69.5 µM | TGI [3]: > 100 µM | GI50 [4]: > 100 µM | TGI [4]: > 100 µM | GI50 [10]: 55.8 µM | TGI [10]: > 100 µM | GI50 [6]: > 100 µM | TGI [6]: > 100 µM | GI50 [7]: > 100 µM | TGI [7]: > 100 µM | GI50 [8]: > 100 µM | TGI [8]: > 100 µM | GI50 [9]: > 100 µM | TGI [9]: > 100 µM

O=C1NC(c2cccc(OCc3ccccc3)c2)Nc2ccccc21 (configuration not stated)
TGI [1]: 50.7 µM | TGI [3]: 0.636 µM | TGI [4]: 2.77 µM | TGI [10]: > 90.1 µM | TGI [6]: 26.3 µM | TGI [7]: 30.5 µM | TGI [8]: 55 µM | TGI [9]: 4.25 µM

COC(=O)[C@]12CC[C@@H](C)[C@H](C)[C@@H]1C1=CC[C@@H]3[C@@]4(C)C(C=O)=C[C@@](C)(COC(=O)/C=C/c5ccccc5)[C@@H]4[C@H](O)C[C@@]3(C)[C@]1(C)CC2
GI50 [1]: 2.36 µM | TGI [1]: 6.82 µM | GI50 [3]: 4.47 µM | TGI [3]: 17.4 µM | GI50 [4]: 2.09 µM | TGI [4]: 7.36 µM | GI50 [10]: 4.4 µM | TGI [10]: 84.1 µM | GI50 [6]: 9.4 µM | TGI [6]: 32.1 µM | GI50 [7]: 3.8 µM | TGI [7]: 26.5 µM | GI50 [8]: 3.28 µM | TGI [8]: 20.2 µM | GI50 [9]: 3.75 µM | TGI [9]: 16.2 µM

O=[N+]([O-])c1ccc(Sc2ccncn2)c([N+](=O)[O-])c1
GI50 [1]: 2.81 µM | TGI [1]: 9.37 µM | GI50 [3]: 0.291 µM | TGI [3]: 0.987 µM | GI50 [4]: 0.939 µM | TGI [4]: 4.24 µM | GI50 [10]: 1.94 µM | TGI [10]: 4.41 µM | GI50 [6]: 4.47 µM | TGI [6]: 15.8 µM | GI50 [7]: 3.89 µM | TGI [7]: 15.1 µM | GI50 [8]: 1.08 µM | TGI [8]: 2.84 µM | GI50 [9]: 5.47 µM | TGI [9]: 17.8 µM

CCOC(=O)C(C(O)c1ccc([N+](=O)[O-])cc1)P(=O)(OCC)OCC (configuration not stated)
TGI [2]: > 100 µM | TGI [3]: > 100 µM | TGI [4]: > 100 µM | TGI [5]: > 100 µM | TGI [6]: > 100 µM | TGI [7]: > 100 µM | TGI [9]: > 100 µM

C=CCc1c(O)c(C(=O)/C=C/c2ccccc2)c(OC)c2ccoc12
GI50 [1]: 2.56 µM | TGI [1]: 7.75 µM | GI50 [3]: 2.15 µM | TGI [3]: 9.28 µM | GI50 [4]: 2.17 µM | TGI [4]: 16.6 µM | GI50 [10]: 4.11 µM | TGI [10]: 22.4 µM | GI50 [6]: 5.32 µM | TGI [6]: 17.8 µM | GI50 [7]: 3.79 µM | TGI [7]: 14.1 µM | GI50 [8]: 2.89 µM | TGI [8]: 14.5 µM | GI50 [9]: 2.36 µM | TGI [9]: 7.46 µM

O=C(O)Cc1cccc2c(=O)c3cccc([N+](=O)[O-])c3oc12
TGI [1]: > 100 µM | TGI [3]: > 100 µM | TGI [4]: > 100 µM | TGI [10]: > 100 µM | TGI [6]: > 100 µM | TGI [7]: > 100 µM | TGI [8]: > 100 µM | TGI [9]: > 100 µM

C/C(=N/N=C(N)N)c1ccc(NC(=O)Nc2ccc(/C(C)=N/N=C(N)N)cc2)cc1
GI50 [1]: 31.1 µM | TGI [1]: > 89.6 µM | GI50 [3]: 7.14 µM | TGI [3]: 28.8 µM | GI50 [4]: 25.7 µM | TGI [4]: > 100 µM | GI50 [10]: 8.29 µM | TGI [10]: 34.6 µM | GI50 [6]: 21.8 µM | TGI [6]: > 60.3 µM | GI50 [7]: 14.2 µM | TGI [7]: 45.7 µM | GI50 [8]: 40.8 µM | TGI [8]: > 100 µM | GI50 [9]: 7.94 µM | TGI [9]: 24.3 µM

C/C(=N/Nc1nc(C)cc(=O)[nH]1)C(=O)O
TGI [1]: > 100 µM | TGI [3]: > 100 µM | TGI [4]: > 100 µM | TGI [10]: > 100 µM | TGI [6]: > 100 µM | TGI [7]: > 100 µM | TGI [8]: > 100 µM | TGI [9]: > 100 µM

Cc1ccc(OCC2OC(n3cnc4c(Br)nc(Br)nc43)CC2Oc2ccc(C)cc2)cc1 (configuration not stated)
GI50 [1]: 10.3 µM | TGI [1]: 20.4 µM and 21.3 µM | GI50 [3]: 1.65 µM | TGI [3]: 2.8 µM and 3.27 µM | TGI [4]: 4.34 µM and 5.42 µM | GI50 [10]: 2.48 µM | TGI [10]: 29.7 µM and 6.82 µM | GI50 [6]: 9.08 µM | TGI [6]: 19.2 µM and 17.1 µM | GI50 [7]: 9.93 µM | TGI [7]: 22.9 µM and 14.2 µM | GI50 [8]: 11.9 µM | TGI [8]: 22.3 µM and 28.4 µM | GI50 [9]: 1.61 µM | TGI [9]: 3.99 µM and 4.82 µM

CN(C)CCNC(=O)NC[C@H]1CC[C@@H]2[C@H](O1)c1cc(C(F)(F)F)ccc1N[C@H]2c1ccccc1
GI50 [1]: 10.5 µM | TGI [1]: 23.9 µM | GI50 [3]: 0.0506 µM | TGI [3]: 0.303 µM | GI50 [4]: 0.373 µM | TGI [4]: 19.6 µM | GI50 [10]: 0.371 µM | TGI [10]: 17.8 µM | GI50 [6]: 1.71 µM | TGI [6]: 24.1 µM | GI50 [7]: 0.455 µM | TGI [7]: > 51.7 µM | GI50 [8]: 6.12 µM | TGI [8]: 34.6 µM | GI50 [9]: 0.0537 µM | TGI [9]: 1.69 µM

COc1cccc2c1C(=O)c1c(O)c3c(c(O)c1C2=O)CC(O)(C(=O)CO)CC3OC1CC(N)C(O)C(C)O1 (configuration not stated)
GI50 [1]: 29.9 µg/mL and 25.1 µg/mL | TGI [1]: 75 µg/mL and 113 µg/mL | GI50 [3]: 4.07 µg/mL | TGI [3]: 75 µg/mL | GI50 [4]: 1.13 µg/mL and 1.46 µg/mL | GI50 [10]: 7.53 µg/mL and 54.8 µg/mL | TGI [10]: 73.9 µg/mL and > 150 µg/mL | GI50 [6]: 5.83 µg/mL and 5.96 µg/mL | TGI [6]: 75 µg/mL and > 150 µg/mL | GI50 [7]: 14.4 µg/mL and 13 µg/mL | TGI [7]: 75 µg/mL and > 150 µg/mL | GI50 [8]: 59 µg/mL and > 150 µg/mL | TGI [8]: 75 µg/mL and > 150 µg/mL | GI50 [9]: 2.22 µg/mL and 6.15 µg/mL | TGI [9]: 75 µg/mL and 44 µg/mL

CN(C)c1ccc(N=C2C=CC(=O)c3ccccc32)cc1
GI50 [1]: 2.21 µM | TGI [1]: 5.45 µM | GI50 [3]: 1.97 µM | TGI [3]: 4.51 µM | GI50 [4]: 2.45 µM | TGI [4]: 6.21 µM | GI50 [10]: 2.27 µM | TGI [10]: 6.01 µM | GI50 [6]: 2.19 µM | TGI [6]: 6.62 µM | GI50 [7]: 2.54 µM | TGI [7]: 9.28 µM | GI50 [8]: 2.28 µM | TGI [8]: 16.6 µM | GI50 [9]: 2.47 µM | TGI [9]: 7.9 µM
